Source: patent publication US8822413B2, “Bifunctional hormone having alpha-MSH activity and natriuretic peptide activity and uses thereof” (Theratechnologies Inc., priority 2007, dated 2014)
Bridge positions count the residues as written; N and C are the ends. Square brackets hold non-standard residues; d marks the D form. Peptide text beside a SMILES is read from it. Nle = CCCC[C@H](N)C(=O)O

Tests used:
normal men = conditions: infusion in normal men; cited from earlier work
ANP receptor = target: T1, ANP receptor (Sus scrofa, UniProt F1SFW3); assay: cGMP production in ANP receptor-expressing LLC-PK1 cells; assay type: cell-based; conditions: 30 min stimulation, 10^-6M through 10^-12M
T1 construct: ANP receptor-expressing LLC-PK1 cells; endogenous in cells; host or cells: LLC-PK1 cells
T1 sequence (F1SFW3 29-1057): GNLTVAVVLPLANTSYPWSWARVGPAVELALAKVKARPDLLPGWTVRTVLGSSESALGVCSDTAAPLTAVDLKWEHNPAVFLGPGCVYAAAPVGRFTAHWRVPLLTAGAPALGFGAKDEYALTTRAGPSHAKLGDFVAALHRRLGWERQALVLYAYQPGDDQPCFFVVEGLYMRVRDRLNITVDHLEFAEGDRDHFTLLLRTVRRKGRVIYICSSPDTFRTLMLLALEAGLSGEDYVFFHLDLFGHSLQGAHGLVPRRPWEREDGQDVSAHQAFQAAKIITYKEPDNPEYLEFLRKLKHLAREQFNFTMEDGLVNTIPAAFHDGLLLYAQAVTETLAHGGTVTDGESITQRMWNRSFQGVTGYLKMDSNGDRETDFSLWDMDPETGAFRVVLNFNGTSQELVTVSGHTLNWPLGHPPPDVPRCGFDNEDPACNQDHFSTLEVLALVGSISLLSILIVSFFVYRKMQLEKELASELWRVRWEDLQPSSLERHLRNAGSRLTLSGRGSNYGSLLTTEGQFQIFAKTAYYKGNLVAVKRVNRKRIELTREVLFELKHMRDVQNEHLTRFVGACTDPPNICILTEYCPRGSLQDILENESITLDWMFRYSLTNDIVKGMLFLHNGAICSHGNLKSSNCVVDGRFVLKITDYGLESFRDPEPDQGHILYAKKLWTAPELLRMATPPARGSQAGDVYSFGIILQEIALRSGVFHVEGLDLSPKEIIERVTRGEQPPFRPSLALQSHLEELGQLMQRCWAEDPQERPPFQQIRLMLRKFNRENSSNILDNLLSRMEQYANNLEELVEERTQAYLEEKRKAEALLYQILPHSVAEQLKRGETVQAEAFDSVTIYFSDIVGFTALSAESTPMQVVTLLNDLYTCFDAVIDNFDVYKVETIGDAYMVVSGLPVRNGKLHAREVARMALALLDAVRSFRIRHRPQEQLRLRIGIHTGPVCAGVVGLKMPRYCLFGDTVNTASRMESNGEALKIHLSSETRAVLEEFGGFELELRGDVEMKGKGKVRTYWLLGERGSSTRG
Protocol: The bifunctional hormone was tested on ANP receptor-expressing LLC-PK1 cells and on MCR1 receptor-expressing B16-F1 cells. Both cell types were cultured 24 hours before the stimulation, in 96-well plates, at a concentration of 1.0×10^5 cells/ml. Before stimulation, cells were starved 2 hours in DPBS only and incubated 10 min in assay buffer (DPBS containing 20 mM HEPES, 0.1% BSA and 500 μM IBMX). The dose response curve of the bifunctional hormone was done for 30 minutes with concentrations of 10^−6M through 10^−12M. Supernatant was collected and cAMP (B16-F1) or cGMP (LLC-PK1) was measured with a radiolabeled kit from GE Healthcare Company.

| Molecule | EC50 (ANP receptor; NR = No response detected) | EC50 (ANP receptor) | further results |
| --- | --- | --- | --- |
| S-P-K-M-V-Q-G-S-G-[C-P-G-R-K-M-D-R-I-S-S-S-S-G-L-G-C]-K-V-L-R-R-H [BNP] |  |  | increase in sodium excretion (normal men): 2 fold; reduction in plasma renin, angiotensin II and aldosterone secretion (normal men): 50% |
| CC[C@H](C)[C@@H]1NC(=O)[C@H](CCCNC(=N)N)NC(=O)[C@H](CC(=O)O)NC(=O)[C@H](CCSC)NC(=O)[C@H](CCCNC(=N)N)NC(=O)CNC(=O)CNC(=O)[C@H](Cc2ccccc2)NC(=O)[C@@H](NC(=O)[C@H](CO)NC(=O)[C@H](CO)NC(=O)[C@H](CCCNC(=N)N)NC(=O)[C@H](CCCNC(=N)N)NC(=O)CNC(=O)[C@H](Cc2c[nH]c3ccccc23)NC(=O)[C@H](CCCNC(=N)N)NC(=O)[C@H](Cc2ccccc2)NC(=O)[C@H](Cc2c[nH]cn2)NC(C)=O)CSSC[C@@H](C(=O)N[C@@H](CC(N)=O)C(=O)N[C@@H](CO)C(=O)N[C@@H](Cc2ccccc2)C(=O)N[C@@H](CCCNC(=N)N)C(=O)N[C@@H](Cc2ccc(O)cc2)C(N)=O)NC(=O)CNC(=O)[C@H](CC(C)C)NC(=O)CNC(=O)[C@H](CO)NC(=O)[C@H](CCC(N)=O)NC(=O)[C@H](C)NC(=O)CNC1=O [SEQ ID NO: 38, Ac-H-F-R-W-G-R-R-S-S-[C-F-G-G-R-M-D-R-I-G-A-Q-S-G-L-G-C]-N-S-F-R-Y-NH2] (Ac-HFRWGRRSSCFGGRMDRIGAQSGLGCNSFRY-NH2; disulfide 10-26) | 0.0069 µM |  |  |
| CCCC[C@@H]1NC(=O)[C@H](CCCNC(=N)N)NC(=O)CNC(=O)CNC(=O)[C@H](Cc2ccccc2)NC(=O)[C@H](Cc2c[nH]cn2)NC(=O)[C@@H](NC(=O)[C@@H](N)CCCC)CCC(=O)NCCCC[C@@H](C(=O)N[C@@H](Cc2ccc(O)cc2)C(=O)N[C@@H](CCCNC(=N)N)C(=O)N[C@@H](Cc2c[nH]cn2)C(=O)N[C@H](Cc2ccccc2)C(=O)N[C@@H](CCCNC(=N)N)C(=O)N[C@@H](Cc2c[nH]c3ccccc23)C(N)=O)NC(=O)[C@H](CO)NC(=O)[C@H]([C@@H](C)CC)NC(=O)[C@H](CCCNC(=N)N)NC(=O)[C@H](CC(=O)O)NC1=O [SEQ ID NO: 29, Nle-[E-H-F-G-G-R-Nle-D-R-I-S-K]-Y-R-H-f-R-W-NH2] (H-[Nle]EHFGGR[Nle]DRISKYRH[dF]RW-NH2; lactam 2-13) |  | 1.43 µM |  |
| CC[C@H](C)[C@@H]1NC(=O)[C@H](CCCNC(=N)N)NC(=O)[C@H](CC(=O)O)NC(=O)[C@H](CCSC)NC(=O)[C@H](CCCNC(=N)N)NC(=O)CNC(=O)CNC(=O)[C@H](Cc2ccccc2)NC(=O)[C@@H](NC(=O)[C@H](CO)NC(=O)[C@H](CO)NC(=O)[C@H](CCCNC(=N)N)NC(=O)[C@H](CCCNC(=N)N)NC(=O)CNC(=O)[C@H](Cc2c[nH]c3ccccc23)NC(=O)[C@H](CCCNC(=N)N)NC(=O)[C@@H](Cc2ccccc2)NC(=O)[C@H](Cc2c[nH]cn2)NC(=O)[C@H](CCC(=O)O)NC(C)=O)CSSC[C@@H](C(=O)N[C@@H](CC(N)=O)C(=O)N[C@@H](CO)C(=O)N[C@@H](Cc2ccccc2)C(=O)N[C@@H](CCCNC(=N)N)C(=O)N[C@@H](Cc2ccc(O)cc2)C(N)=O)NC(=O)CNC(=O)[C@H](CC(C)C)NC(=O)CNC(=O)[C@H](CO)NC(=O)[C@H](CCC(N)=O)NC(=O)[C@H](C)NC(=O)CNC1=O [SEQ ID NO: 42, Ac-E-H-f-R-W-G-R-R-S-S-[C-F-G-G-R-M-D-R-I-G-A-Q-S-G-L-G-C]-N-S-F-R-Y-NH2] (Ac-EH[dF]RWGRRSSCFGGRMDRIGAQSGLGCNSFRY-NH2; disulfide 11-27) | 0.502 µM |  |  |
| CC[C@H](C)[C@@H]1NC(=O)[C@H](CCCNC(=N)N)NC(=O)[C@H](CC(=O)O)NC(=O)[C@H](CCSC)NC(=O)[C@H](CCCNC(=N)N)NC(=O)CNC(=O)CNC(=O)[C@H](Cc2ccccc2)NC(=O)[C@@H](NC(=O)[C@H](CO)NC(=O)[C@H](CO)NC(=O)[C@H](CCCNC(=N)N)NC(=O)[C@H](CCCNC(=N)N)NC(=O)[C@H](CC(C)C)NC(=O)[C@@H](N)CO)CSSC[C@@H](C(=O)N[C@@H](CC(N)=O)C(=O)N[C@@H](CO)C(=O)N[C@@H](Cc2ccccc2)C(=O)N[C@@H](CCCNC(=N)N)C(=O)N[C@@H](Cc2ccc(O)cc2)C(=O)N[C@@H](Cc2c[nH]cn2)C(=O)N[C@H](Cc2ccccc2)C(=O)N[C@@H](CCCNC(=N)N)C(=O)N[C@@H](Cc2c[nH]c3ccccc23)C(N)=O)NC(=O)CNC(=O)[C@H](CC(C)C)NC(=O)CNC(=O)[C@H](CO)NC(=O)[C@H](CCC(N)=O)NC(=O)[C@H](C)NC(=O)CNC1=O [SEQ ID NO: 40, S-L-R-R-S-S-[C-F-G-G-R-M-D-R-I-G-A-Q-S-G-L-G-C]-N-S-F-R-Y-H-f-R-W-NH2] |  | 7 µM |  |
